Measurements published in ChEMBL document CHEMBL2169878 (J Med Chem, 2012).
Activity calls are given as the source filed them. The calls are words filed in the database; no cut-off is given here.

Tests used:
[1] = test system: Salmonella typhimurium; test: Mutagenicity against Salmonella typhimurium TA98 assessed as revertants at 24 uM incubated for 90 mins followed by drug washout measured after 2 days relative to positive control; format: toxicity, organism-based; details: salmonella enterica subsp. enterica serovar typhimurium, 1.5 h
[2] = test system: Salmonella typhimurium; test: Mutagenicity against Salmonella typhimurium TA98 assessed as revertants at 16 uM incubated for 90 mins followed by drug washout measured after 2 days relative to positive control; format: toxicity, organism-based; details: salmonella enterica subsp. enterica serovar typhimurium
[3] = test system: Salmonella typhimurium; test: Mutagenicity against Salmonella typhimurium TA98 assessed as revertants at 40 uM incubated for 90 mins followed by drug washout measured after 2 days relative to positive control; format: toxicity, organism-based; details: salmonella enterica subsp. enterica serovar typhimurium
[4] = test system: Salmonella typhimurium; test: Mutagenicity against Salmonella typhimurium TA98 assessed as revertants at 80 uM incubated for 90 mins followed by drug washout measured after 2 days relative to positive control; format: toxicity, organism-based; details: salmonella enterica subsp. enterica serovar typhimurium, 1.5 h
[5] = test system: Salmonella typhimurium; test: Mutagenicity against Salmonella typhimurium TA100 assessed as revertants at 2 uM incubated for 90 mins followed by drug washout measured after 2 days relative to positive control; format: toxicity, organism-based; details: salmonella enterica subsp. enterica serovar typhimurium
[6] = test system: Salmonella typhimurium; test: Mutagenicity against Salmonella typhimurium TA100 assessed as revertants at 4 uM incubated for 90 mins followed by drug washout measured after 2 days relative to positive control; format: toxicity, organism-based; details: salmonella enterica subsp. enterica serovar typhimurium, 1.5 h
[7] = test system: Salmonella typhimurium; test: Mutagenicity against Salmonella typhimurium TA100 assessed as revertants at 24 uM incubated for 90 mins followed by drug washout measured after 2 days relative to positive control; format: toxicity, organism-based; details: salmonella enterica subsp. enterica serovar typhimurium
[8] = test system: Salmonella typhimurium; test: Mutagenicity against Salmonella typhimurium TA100 assessed as revertants at 16 uM incubated for 90 mins followed by drug washout measured after 2 days relative to positive control; format: toxicity, organism-based; details: salmonella enterica subsp. enterica serovar typhimurium
[9] = test system: Salmonella typhimurium; test: Mutagenicity against Salmonella typhimurium TA100 assessed as revertants at 40 uM incubated for 90 mins followed by drug washout measured after 2 days relative to positive control; format: toxicity, organism-based; details: salmonella enterica subsp. enterica serovar typhimurium
[10] = test system: Salmonella typhimurium; test: Mutagenicity against Salmonella typhimurium TA100 assessed as revertants at 80 uM incubated for 90 mins followed by drug washout measured after 2 days relative to positive control; format: toxicity, organism-based; details: salmonella enterica subsp. enterica serovar typhimurium
[11] = test system: Plasmodium falciparum; test: Antiplasmodial activity against chloroquine-sensitive Plasmodium falciparum D10 infected in human RBC after 72 hrs by parasite lactate dehydrogenase assay; format: functional, organism-based; details: D10, 72 h
[12] = test system: Plasmodium falciparum; test: Antiplasmodial activity against chloroquine-resistant Plasmodium falciparum W2 infected in human RBC after 72 hrs by parasite lactate dehydrogenase assay; format: functional, organism-based; details: W2, 72 h
[13] = test system: Plasmodium berghei; test: Antimalarial activity against Plasmodium berghei ANKA expressing GFP infected in mouse assessed as reduction in parasitemia at 100 mg/kg, po administered 24 hrs post-infection measured 48 hrs post-dosing by flow cytometric analysis; format: functional; parameters: scale not given: the % may be the effect or the level left
[14] = test system: Plasmodium berghei; test: Antimalarial activity against Plasmodium berghei ANKA expressing GFP infected in mouse assessed as reduction in parasitemia at 30 mg/kg, po administered 24 hrs post-infection measured 48 hrs post-dosing by flow cytometric analysis; format: functional; parameters: scale not given: the % may be the effect or the level left
[15] = test system: Plasmodium berghei; test: Antimalarial activity against Plasmodium berghei ANKA expressing GFP infected in mouse assessed as mean survival days at 100 mg/kg, po administered 24 hrs post-infection (reference value: 6 to 7 days); format: functional
[16] = test system: Plasmodium berghei; test: Antimalarial activity against Plasmodium berghei ANKA expressing GFP infected in mouse assessed as mean survival days at 30 mg/kg, po administered 24 hrs post-infection (reference value: 6 to 7 days); format: functional
[17] = test system: Plasmodium berghei; test: Antimalarial activity against Plasmodium berghei ANKA expressing GFP infected in mouse assessed as cure from infection at 100 mg/kg, po administered 24 hrs post-infection measured on day 30; format: functional, organism-based; parameters: dose 100 mg/kg
[18] = test system: Plasmodium berghei; test: Antimalarial activity against Plasmodium berghei ANKA expressing GFP infected in mouse assessed as cure from infection at 30 mg/kg, po administered 24 hrs post-infection measured on day 30; format: functional, organism-based; parameters: dose 30 mg/kg
[19] = biological target: T1, Chloroquine resistance transporter (Plasmodium falciparum) (UniProt Q9N623); test: Inhibition of chloroquine-resistant Plasmodium falciparum Dd2 CRT expressed in Xenopus laevis oocyte assessed as inhibition of [3H]chloroquine uptake at 100 uM measured from 1 to 2 hrs
T1 sequence (whole entry): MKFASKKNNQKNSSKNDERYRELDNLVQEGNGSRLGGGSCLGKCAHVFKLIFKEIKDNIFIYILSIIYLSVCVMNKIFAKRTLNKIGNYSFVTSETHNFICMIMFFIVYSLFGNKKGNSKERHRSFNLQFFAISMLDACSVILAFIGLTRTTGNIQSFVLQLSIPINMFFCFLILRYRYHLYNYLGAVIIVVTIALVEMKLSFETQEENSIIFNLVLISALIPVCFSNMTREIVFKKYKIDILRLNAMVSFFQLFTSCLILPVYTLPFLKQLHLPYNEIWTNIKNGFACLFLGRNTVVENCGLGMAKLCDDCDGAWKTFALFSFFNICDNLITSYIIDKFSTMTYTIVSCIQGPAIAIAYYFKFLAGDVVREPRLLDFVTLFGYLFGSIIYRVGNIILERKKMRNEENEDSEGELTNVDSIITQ

[20] = Cytotoxicity against mouse NIH3T3 cells after 24 hrs by neutral red dye uptake assay; format: cell-based; details: read-out: TC50
[21] = Cytotoxicity against human HepG2 cells after 24 hrs by neutral red dye uptake assay; format: cell-based; details: read-out: TC50
[22] = test system: Salmonella typhimurium; test: Mutagenicity against Salmonella typhimurium TA98 assessed as revertants at 2 uM incubated for 90 mins followed by drug washout measured after 2 days relative to positive control; format: toxicity, organism-based; details: salmonella enterica subsp. enterica serovar typhimurium, 1.5 h
[23] = test system: Salmonella typhimurium; test: Mutagenicity against Salmonella typhimurium TA98 assessed as revertants at 4 uM incubated for 90 mins followed by drug washout measured after 2 days relative to positive control; format: toxicity, organism-based; details: salmonella enterica subsp. enterica serovar typhimurium
[24] = test system: Salmonella typhimurium; test: Mutagenicity against Salmonella typhimurium TA98 assessed as revertants at 8 uM incubated for 90 mins followed by drug washout measured after 2 days relative to positive control; format: toxicity, organism-based; details: salmonella enterica subsp. enterica serovar typhimurium, 1.5 h
[25] = test system: Salmonella typhimurium; test: Mutagenicity against Salmonella typhimurium TA98 assessed as revertants at 17 uM incubated for 90 mins followed by drug washout measured after 2 days relative to positive control; format: toxicity, organism-based; details: salmonella enterica subsp. enterica serovar typhimurium
[26] = test system: Salmonella typhimurium; test: Mutagenicity against Salmonella typhimurium TA98 assessed as revertants at 33 uM incubated for 90 mins followed by drug washout measured after 2 days relative to positive control; format: toxicity, organism-based; details: salmonella enterica subsp. enterica serovar typhimurium, 1.5 h
[27] = test system: Salmonella typhimurium; test: Mutagenicity against Salmonella typhimurium TA98 assessed as revertants at 66 uM incubated for 90 mins followed by drug washout measured after 2 days relative to positive control; format: toxicity, organism-based; details: salmonella enterica subsp. enterica serovar typhimurium
[28] = test system: Salmonella typhimurium; test: Mutagenicity against Salmonella typhimurium TA100 assessed as revertants at 9 uM incubated for 90 mins followed by drug washout measured after 2 days relative to positive control; format: toxicity, organism-based; details: salmonella enterica subsp. enterica serovar typhimurium, 1.5 h
[29] = test system: Salmonella typhimurium; test: Mutagenicity against Salmonella typhimurium TA100 assessed as revertants at 17 uM incubated for 90 mins followed by drug washout measured after 2 days relative to positive control; format: toxicity, organism-based; details: salmonella enterica subsp. enterica serovar typhimurium
[30] = test system: Salmonella typhimurium; test: Mutagenicity against Salmonella typhimurium TA100 assessed as revertants at 33 uM incubated for 90 mins followed by drug washout measured after 2 days relative to positive control; format: toxicity, organism-based; details: salmonella enterica subsp. enterica serovar typhimurium, 1.5 h
[31] = test system: Salmonella typhimurium; test: Mutagenicity against Salmonella typhimurium TA100 assessed as revertants at 66 uM incubated for 90 mins followed by drug washout measured after 2 days relative to positive control; format: toxicity, organism-based; details: salmonella enterica subsp. enterica serovar typhimurium
[32] = test system: Plasmodium falciparum; test: Antiplasmodial activity against chloroquine-sensitive Plasmodium falciparum NF54 infected in human erythrocytes assessed as inhibition of [3H]hypoxanthine incorporation incubated for 48 hrs prior to [3H]hypoxanthine addition measured after 48 hrs by liquid scintillation counting; format: functional, organism-based
[33] = test system: Plasmodium falciparum; test: Antiplasmodial activity against chloroquine-resistant Plasmodium falciparum K1 infected in human erythrocytes assessed as inhibition of [3H]hypoxanthine incorporation incubated for 48 hrs prior to [3H]hypoxanthine addition measured after 48 hrs by liquid scintillation counting; format: functional, organism-based
[34] = biological target: Chloroquine resistance transporter (Plasmodium falciparum, UniProt Q9N623); test: Inhibition of chloroquine-resistant Plasmodium falciparum Dd2 CRT expressed in Xenopus laevis oocyte assessed as inhibition of [3H]chloroquine uptake measured from 1 to 2 hrs

Clc1ccc(C(Nc2ccnc3cc(Cl)ccc23)c2ccc(CN3CCCC3)c(Cl)c2)cc1 (racemic)
Activity [1]: 10%
Activity [2]: 3%
Activity [3]: 10%
Activity [4]: 0%
Activity [5]: 4%
Activity [6]: 3%
Activity [7]: 4%
Activity [8]: 1%
Activity [9]: 8%
Activity [10]: 1%
IC50 [11]: 8.4 nM
IC50 [12]: 28 nM
Activity [13]: 99.5%
Activity [14]: 99.4%
MSD [15]: 14 days
MSD [16]: 7.7 days
Activity [17]: inactive
Activity [18]: inactive
inhibition [19]: 70%
CC50 at 24 h [20]: 16000 nM
CC50 at 24 h [21]: 4000 nM
Activity [22]: 17%
Activity [23]: 0%

Fc1cc(C(Nc2ccnc3cc(C(F)(F)F)ccc23)c2ccc(Cl)cc2)ccc1CN1CCCC1 (racemic)
Activity [24]: 1%
Activity [25]: 4%
Activity [26]: 4%
Activity [27]: 8%
Activity [5]: 4%
Activity [6]: 3%
Activity [28]: 1%
Activity [29]: 4%
Activity [30]: 8%
Activity [31]: 1%
IC50 [11]: 51 nM
IC50 [12]: 76 nM
IC50 [32]: 20 nM
IC50 [33]: 33 nM
CC50 at 24 h [20]: 34000 nM
CC50 at 24 h [21]: 19000 nM
Activity [22]: 1%
Activity [23]: 1%

CC(C)(C)NC(=O)[C@@H]1C[C@@H]2CCCC[C@@H]2CN1C[C@@H](O)[C@H](Cc1ccccc1)NC(=O)[C@H](CC(N)=O)NC(=O)c1ccc2ccccc2n1
IC50 [34]: 13000 nM
